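Compound exposure: 48 hours, 5 concentrations, 96-well plates. At the GI50, growth is halved. TGI: concentration producing complete growth inhibition.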
Tests used:
Assay in all cases: growth of human tumour cells (NCI), 48 h
[1] = test system: NCI-H23 lung
[2] = test system: K-562 leukemia
[3] = test system: PC-3 prostate
[4] = test system: SNB-19 CNS
[5] = test system: MCF7 breast
[6] = test system: SR leukemia
[7] = test system: A549 NSCLC
[8] = test system: SNB-75 CNS
[9] = test system: MDA-MB-231 breast
[10] = test system: UACC-257 melanoma
[11] = test system: T-47D breast
[12] = test system: COLO 205 colon
[13] = test system: HOP-62 NSCLC
[14] = test system: MALME-3M melanoma
[15] = test system: BT-549 breast
[16] = test system: SN12C renal
[17] = test system: OVCAR-4 ovarian
[18] = test system: UACC-62 melanoma
[19] = test system: OVCAR-3 ovarian
[20] = test system: CAKI-1 renal
[21] = test system: OVCAR-5 ovarian
[22] = test system: HT29 colon
[23] = test system: IGROV1 ovarian
[24] = test system: HCC-2998 colon
[25] = test system: EKVX NSCLC
[26] = test system: SK-MEL-28 melanoma
[27] = test system: SK-OV-3 ovarian
[28] = test system: 786-0 renal
[29] = test system: SK-MEL-5 melanoma
[30] = test system: OVCAR-8 ovarian
[31] = test system: U251 CNS
[32] = test system: SF-539 CNS
[33] = test system: A498 renal
[34] = test system: HCT-15 colon
[35] = test system: HS 578T breast
[36] = test system: DU-145 prostate
[37] = test system: ACHN renal
[38] = test system: SF-268 CNS
[39] = test system: NCI/ADR-RES ovarian
[40] = test system: MDA-MB-435
[41] = test system: NCI-H226 lung
[42] = test system: LOX IMVI melanoma
[43] = test system: NCI-H522 lung
[44] = test system: RPMI-8226 leukemia
[45] = test system: M14 melanoma
[46] = test system: NCI-H460 lung
[47] = test system: HL-60(TB) leukemia
[48] = test system: CCRF-CEM leukemia
[49] = test system: KM12 colon
[50] = test system: UO-31 renal
[51] = test system: RXF 393 renal
[52] = test system: HOP-92 NSCLC
[53] = test system: SK-MEL-2 melanoma
[54] = test system: SW-620 colon
[55] = test system: TK-10 renal
[56] = test system: HCT-116 colon
[57] = test system: SF-295 CNS
[58] = test system: MOLT-4 leukemia

O=C1CN=C(c2ccc[nH]2)c2cc(Cl)ccc2N1
GI50 [1]: 18.6 µM
TGI [1]: > 100 µM
GI50 [2]: 54 µM
TGI [2]: > 100 µM
GI50 [3]: 93.4 µM
TGI [3]: > 100 µM
GI50 [4]: > 100 µM
TGI [4]: > 100 µM
GI50 [5]: > 100 µM
TGI [5]: > 100 µM
GI50 [6]: > 100 µM
TGI [6]: > 100 µM
GI50 [7]: > 100 µM
TGI [7]: > 100 µM
GI50 [8]: > 100 µM
TGI [8]: > 100 µM
GI50 [9]: > 100 µM
TGI [9]: > 100 µM
GI50 [10]: > 100 µM
TGI [10]: > 100 µM
GI50 [11]: > 100 µM
TGI [11]: > 100 µM
GI50 [12]: > 100 µM
TGI [12]: > 100 µM
GI50 [13]: > 100 µM
TGI [13]: > 100 µM
GI50 [14]: > 100 µM
TGI [14]: > 100 µM
GI50 [15]: 53.3 µM
TGI [15]: > 100 µM
GI50 [16]: > 100 µM
TGI [16]: > 100 µM
GI50 [17]: > 100 µM
TGI [17]: > 100 µM
GI50 [18]: 95 µM
TGI [18]: > 100 µM
GI50 [19]: > 100 µM
TGI [19]: > 100 µM
GI50 [20]: > 100 µM
TGI [20]: > 100 µM
GI50 [21]: > 100 µM
TGI [21]: > 100 µM
GI50 [22]: 38.9 µM
TGI [22]: > 100 µM
GI50 [23]: > 100 µM
TGI [23]: > 100 µM
GI50 [24]: > 100 µM
TGI [24]: > 100 µM
GI50 [25]: > 100 µM
TGI [25]: > 100 µM
GI50 [26]: > 100 µM
TGI [26]: > 100 µM
GI50 [27]: > 100 µM
TGI [27]: > 100 µM
GI50 [28]: > 100 µM
TGI [28]: > 100 µM
GI50 [29]: > 100 µM
TGI [29]: > 100 µM
GI50 [30]: > 100 µM
TGI [30]: > 100 µM
GI50 [31]: 71.8 µM
TGI [31]: > 100 µM
GI50 [32]: > 100 µM
TGI [32]: > 100 µM
GI50 [33]: > 100 µM
TGI [33]: > 100 µM
GI50 [34]: 19.1 µM
TGI [34]: > 100 µM
GI50 [35]: > 100 µM
TGI [35]: > 100 µM
GI50 [36]: > 100 µM
TGI [36]: > 100 µM
GI50 [37]: > 100 µM
TGI [37]: > 100 µM
GI50 [38]: > 100 µM
TGI [38]: > 100 µM
GI50 [39]: 57.4 µM
TGI [39]: > 100 µM
GI50 [40]: > 100 µM
TGI [40]: > 100 µM
GI50 [41]: > 100 µM
TGI [41]: > 100 µM
GI50 [42]: 17.9 µM
TGI [42]: > 100 µM
GI50 [43]: 25.2 µM
TGI [43]: > 100 µM
GI50 [44]: 3.83 µM
TGI [44]: > 100 µM
GI50 [45]: > 100 µM
TGI [45]: > 100 µM
GI50 [46]: 4.38 µM
TGI [46]: > 100 µM
GI50 [47]: 4.16 µM
TGI [47]: > 100 µM
GI50 [48]: 30.6 µM
TGI [48]: > 100 µM
GI50 [49]: > 100 µM
TGI [49]: > 100 µM
GI50 [50]: > 100 µM
TGI [50]: > 100 µM
GI50 [51]: > 100 µM
TGI [51]: > 100 µM
GI50 [52]: 12.2 µM
TGI [52]: > 100 µM
GI50 [53]: > 100 µM
TGI [53]: > 100 µM
GI50 [54]: > 100 µM
TGI [54]: > 100 µM
GI50 [55]: > 100 µM
TGI [55]: > 100 µM
GI50 [56]: 13 µM
TGI [56]: > 100 µM
GI50 [57]: > 100 µM
TGI [57]: > 100 µM
GI50 [58]: > 100 µM
TGI [58]: > 100 µM

CCCCCSc1ccc2nc(NC(=O)OCC)sc2c1
GI50 [1]: 1.15 µM
TGI [1]: > 100 µM
GI50 [2]: 0.393 µM
TGI [2]: > 100 µM
GI50 [3]: 0.798 µM
TGI [3]: > 100 µM
GI50 [4]: 0.778 µM
TGI [4]: > 100 µM
GI50 [5]: 0.3 µM
TGI [5]: > 100 µM
GI50 [6]: 0.274 µM
TGI [6]: > 100 µM
GI50 [7]: 2.37 µM
TGI [7]: > 100 µM
GI50 [8]: 0.41 µM
TGI [8]: 20.2 µM
GI50 [9]: 0.95 µM
TGI [9]: > 100 µM
GI50 [10]: > 100 µM
TGI [10]: > 100 µM
GI50 [11]: 0.583 µM
TGI [11]: > 100 µM
GI50 [12]: 0.53 µM
TGI [12]: > 100 µM
GI50 [13]: 0.491 µM
TGI [13]: 31.1 µM
GI50 [14]: 0.514 µM
TGI [14]: > 100 µM
GI50 [15]: 0.487 µM
TGI [15]: > 100 µM
GI50 [16]: 0.959 µM
TGI [16]: > 100 µM
GI50 [19]: 0.346 µM
TGI [19]: 2.14 µM
GI50 [20]: 0.626 µM
TGI [20]: > 100 µM
GI50 [21]: 2.73 µM
TGI [21]: > 100 µM
GI50 [22]: 0.348 µM
TGI [22]: > 100 µM
GI50 [23]: 0.945 µM
TGI [23]: > 100 µM
GI50 [24]: 4.88 µM
TGI [24]: > 100 µM
GI50 [25]: 0.557 µM
TGI [25]: > 100 µM
GI50 [26]: 66.2 µM
TGI [26]: > 100 µM
GI50 [27]: 0.535 µM
TGI [27]: > 100 µM
GI50 [28]: 0.541 µM
TGI [28]: > 100 µM
GI50 [29]: 0.658 µM
TGI [29]: > 100 µM
GI50 [30]: 4.85 µM
TGI [30]: > 100 µM
GI50 [31]: 0.41 µM
TGI [31]: 11 µM
GI50 [32]: 0.4 µM
TGI [32]: 4.77 µM
GI50 [33]: 1.22 µM
TGI [33]: 7.88 µM
GI50 [34]: 0.384 µM
TGI [34]: > 100 µM
GI50 [35]: 0.944 µM
TGI [35]: > 100 µM
GI50 [36]: 1.72 µM
TGI [36]: > 100 µM
GI50 [37]: 0.908 µM
TGI [37]: > 100 µM
GI50 [38]: 0.866 µM
TGI [38]: > 100 µM
GI50 [39]: 0.357 µM
TGI [39]: 3.82 µM
GI50 [40]: 0.194 µM
TGI [40]: 0.763 µM
GI50 [41]: 1.95 µM
TGI [41]: > 100 µM
GI50 [42]: 0.455 µM
TGI [42]: > 100 µM
GI50 [43]: 0.245 µM
TGI [43]: 0.865 µM
GI50 [44]: 1.04 µM
TGI [44]: > 100 µM
GI50 [45]: 0.446 µM
TGI [45]: > 100 µM
GI50 [46]: 0.523 µM
TGI [46]: > 100 µM
GI50 [47]: 0.351 µM
TGI [47]: > 100 µM
GI50 [48]: 0.628 µM
TGI [48]: > 100 µM
GI50 [49]: 0.409 µM
TGI [49]: > 100 µM
GI50 [50]: 1.39 µM
TGI [50]: > 100 µM
GI50 [51]: 1.03 µM
TGI [51]: 9.19 µM
GI50 [52]: 1.44 µM
TGI [52]: 67.8 µM
GI50 [53]: 0.431 µM
TGI [53]: 25.3 µM
GI50 [54]: 0.453 µM
TGI [54]: > 100 µM
GI50 [55]: 2.25 µM
TGI [55]: 52.8 µM
GI50 [56]: 0.466 µM
TGI [56]: > 100 µM
GI50 [57]: 0.394 µM
TGI [57]: 10.6 µM
GI50 [58]: 0.85 µM
TGI [58]: > 100 µM
